Assay results: patent US20160166572A1, “BENEFICIAL EFFECTS OF Lp-PLA2 INHIBITORS IN TREATMENT OF DIABETIC RETINOPATHY AND AGE-RELATED MACULAR DEGENERATION” (Rowan University, priority 2014, published 2016)

What was measured:
[1] = system: ganglion cells in the GCL; assay: Extravasated IgG in retina (anti-swine IgG IHC) as evidence of BRB compromise, DMHC pigs; assay type: in vivo, pig; conditions: Darapladib 10 mg/kg/d orally, 24 weeks
Protocol: Briefly, after induction of diabetes by a single injection of Streptozotocin, animals were fed a high cholesterol diet. After a month of DMHC induction and acclimation, animals were randomly segregated to untreated DMHC and Darapladib-treated DMHC groups. Darapladib-treated pigs received 10 mg/kg/d of Darapladib orally. Three of the pigs were spared from DMHC induction and served as age-matched, non-DMHC normal controls. Twenty four weeks after acclimation, animals were euthanized and their brains and eyes were immediately removed. Brains were divided anteroposteriorly into anterior, middle and posterior regions. For each of these brain regions, 2-3 tissue blocks were generated for routine tissue fixation (10% formalin) or freezing and histological processing. The anterior cortical region comprised of anterior ⅔ of frontal lobe and anterior ⅓ of temporal lobe. […] Extravasated IgG was detected using biotinylated anti-swine IgG antibody (Vector laboratories, Inc., Catalogue # BA-9020; dilution 1:100). […] Slides were examined and photographed with a Nikon FXA microscope, and digital images were recorded using a Nikon DXM1200F digital camera and analyzed using MATLAB (MathWorks, Mass., USA) and NIS-elements software (Nikon, Melville, N.Y.). […] The percentage of IgG-positive ganglion cells relative to total ganglion cells in the GCL was calculated. […]

[2] = system: occludin; assay: Occludin gene expression in cerebral cortex (RT-PCR, beta-actin reference), DMHC pigs; assay type: in vivo, pig; conditions: Darapladib 10 mg/kg/d orally, 24 weeks, rank among treatment groups, FIG. 8B
Protocol: Briefly, after induction of diabetes by a single injection of Streptozotocin, animals were fed a high cholesterol diet. After a month of DMHC induction and acclimation, animals were randomly segregated to untreated DMHC and Darapladib-treated DMHC groups. Darapladib-treated pigs received 10 mg/kg/d of Darapladib orally. Three of the pigs were spared from DMHC induction and served as age-matched, non-DMHC normal controls. Twenty four weeks after acclimation, animals were euthanized and their brains and eyes were immediately removed. Brains were divided anteroposteriorly into anterior, middle and posterior regions. […]
Relative quantification of claudin5 and occludin gene expression was carried out using the reporter dye SYBR green and Applied Biosystems 7500 real time polymerase chain reaction (RT-PCR) system. […] Relative quantification of the claudin5 and occludin gene expression was conducted using beta actin (β-actin), a house keeping gene, as a standard. The amplification profiles of all samples were analyzed using Applied Biosystems software. […]
Changes in claudin 5 and occludin gene expression in response to DMHC and Darapladib treatment were assessed in the middle brain region only of the pig cerebral cortex by real-time polymerase chain reaction (RT-PCR) using beta-actin as a reference (FIG. 8).

Structure (SMILES): CCN(CC)CCN(Cc1ccc(-c2ccc(C(F)(F)F)cc2)cc1)C(=O)Cn1c(SCc2ccc(F)cc2)nc(=O)c2c1CCC2 [Darapladib]
- plasma and IgG influx into retinal layers [1]: curtailed plasma and IgG influx into retinal layers
- percentage of IgG-positive ganglion cells relative to total ganglion cells in the GCL ([1]; rank among treatment groups, FIG. 4D): followed by untreated controls and then the DMHC-Darapladib group
- occludin gene expression, middle brain region of cerebral cortex [2]: highest claudin5 and occludin levels
